# Key:
# [1] = system: pentylentetrazole (PTZ)-induced convulsion; assay: Anti-convulsant effect, pentylentetrazole (PTZ) test; format: in vivo; details: 10 mg/kg intraperitoneally, PTZ 80 mg/kg subcutaneously; for mortality rate / Induction percentage of convulsion: (animals/total); for mortality rate: negative control 70(17/23); for Induction percentage of convulsion: negative control 100(23/23); for Initiation time of convulsion: negative control 5.0 ± 0.7; for Duration of convulsion: negative control 46.7 ± 3.3
# Method: An experiment was performed by the method of Ali et al. (Ali, A. et al. 2006, Pharmacological Reports, 58: 242-245). A 10 mg/kg dose of compound was intraperitoneally administered to identify the anti-convulsant effect and the effect was observed (Table 8). Researching the process of activity was performed by the Anti-epileptic Drug Development Program (ADD) of NIH during development of the anti-convulsant drug. One of the assessed items of anti-convulsant activity in the first step of this program is the pentylentetrazole (PTZ) test. […] After 10 mg/kg of the testing drug was administered, assessment was performed by estimating the initiation time of convulsion, duration until convulsion completely disappeared and mortality rate. It was assessed as having an anti-convulsant effect when a single episode of clonic spasm was not shown over 5 seconds on at least one of the 4 laboratory animals after PTZ administration.
# thoracic aorta of rats = assay: Relaxing effect on thoracic aorta contracted by phenylephrine (organ bath); design: species or system rats of SD species; details: 67 μg/mL, phenylephrine 0.5 μM, mean n = 3; for inhibition at 67 µg/mL: Rattus norvegicus, read-out: Relaxation percentage
# Description: After male rats of SD species (250-300 g) were anesthetized by inhalation of ether, their thoracic aortas were extracted and put into a Krebs buffer (mM; NaCl 118, NaHCO3 27.3, KCl 4.8, MgSO4 1.2, KH2PO4 1.0, CaCl2 1.25, glucose 11.1). 2 mm of aortic ring was made under dissecting microscope and cultured in an organ bath to measure the tension of blood vessels. The organ bath was filled with Krebs buffer and saturated with 95% O2, 5% CO2 to maintain dissolved oxygen and physiological pH. Changing of tension was measured by a tension meter (Hugo-sachs, model K30) and recorded by physiological recorder (Coulbourn polygraph). The length of the blood vessels was increased step by step to make 1.0 g of basal tension for 90 minutes. The equilibrated blood vessel was contracted by phenylephrine (0.5 μM). When the contraction furrow reached equilibrium, compounds were added, followed by observation of relaxation response.
# [2] = system: mixed culture of nerve cells-glial cells; assay: Protecting effect on NMDA-induced nerve cell death (LDH release); format: cell-based, ICR mouse; details: 100 μM NMDA, LDH release after 24 hours
# Method: Isolation and culture of nerve cells were performed by Choi's method (Choi, D. W. 1985, Neurosci. Lett., 58: 293-297). That is, the cortex was isolated in fetus ICR mouse that was 14 days pregnant, and then single cells were obtained from the tissue using pipette. The cells were aliquoted into 2×10^5/well density in a 24-well plate (Falcon) in which glial cells of cerebral cortex had been cultured in an incubator maintained at 37° C. with 5% CO2 for over 3 weeks. The culture medium was supplemented with MEM (minimum essential medium, Sigma), 2 mM glutamine, 21 mM glucose, 26.5 mM bicarbonate, 10% fetal bovine serum (FBS). In 3-5 days after aliquot, 10 μM Ara-C (cytosine arabinoside) was treated to suppress proliferation of neuroglia. And it was treated with 100 μM NMDA and 1 μg/mL or 2 μg/mL of each sample (compound) to induce the death of nerve cells due to excitable toxicity for 20 minutes, in 12-15 days after aliquot. Because of nerve cell death, lactate dehydrogenase (LDH) accumulated in proportion to the number of dead cells. In 24 hours after drug treatment, the amount of dehydrogenase (LDH) released to outside of cells was measured by using an […] measurement kit (CytoTox 96, Promega). After the reaction was completed, the change of absorbance depending on the amount of LDH was measured by using a microplate spectrophotometer.
# [3] = system: middle cerebral artery occlusion (MCAO) model; assay: Anti-stroke effect in MCAO model, intravenous administration around reperfusion; format: in vivo, rats of SD species; details: for Inhibitory percentage compared to negative control / Infarcted volume (Mean ± standard deviation): 1 mg/kg iv; for Infarcted volume (Mean ± standard deviation): negative control 0.43 ± 0.02
# Method: Male rats of SD species with 290-300 g of body weight were used as laboratory animals, and 8 rats were used in each experiment group. The operation was performed by using the method of Nagasawa et al. (Nagasawa, H. and Gogure, K. 1989, Stroke, 20: 1037-1043).
# The rats were anesthetized by Ketamine, and the operation was performed as body temperature was maintained using thermoplate. The cerebral region was incised following the median line of the neck, and the left common carotid artery, internal carotid artery and external carotid artery were separated, taking care not to damage the vagus nerve. The common carotid artery and external carotid artery were ligatured, and a probe was inserted into the internal carotid artery from the branch point of the internal and external carotid arteries. And then the fundus of the middle cerebral artery was occluded by ligature just on the upper side of the insertion region. A probe was made by heating the end of a 4-0 nylon surgical suture (Dafilon, B. Braun, Germany) and cut into 30 mm. The 7-9 mm end of the probe was coated with the mixture of silcon (Xantopren VL plus, Heraeus Kulzer, Germany) and curing agent (Optosyl-Xantopren VL plus, Heraeus Kulzer, Germany), and the thickness was to be 0.3-0.4 mm. After the intervention of the probe insertion and the animals came out of the anesthetic, individuals in which neurological deficit symptom (right direction circling) was observed were included in the ischemia group.
# After 3 hours of ischemia, the inserted probe was removed to reperfuse blood circulation. The brain was extracted after 24 hours, followed by histological staining.
# The compound 3 was administered at a programmed time before or after insertion of the probe with oral or intravenous administration. TTC (2,3,5-triphenyltetrazolium chloride) staining was performed to estimate the damage of brain tissue by ischemia. Procephalon of the extracted brain was sliced into 2 mm of sequential slice by using brain matrix (ASI instrument, Warren, Mich., USA). The slices were put into 2% of TTC solution and incubated at 37° C. for 60 minutes for staining. The TTC stained brain slice was fixed in 10% of formalin buffer and the front of the each slice was photographed with a digital camera. The infarcted areas (cm^2) that were not stained with deep red in each acquired image were measured using an image analyzer, and total infarcted volume (cm^3) was calculated by multiplying the thickness of the slices
# In the experiment, the probe was removed after stoke induction so that circulation was reperfused.
# [4] = treatment time 0.5 after reperfusion
# [5] = treatment time 1 after reperfusion
# [6] = treatment time 2 after reperfusion
# [7] = treatment time 4 after reperfusion
# [8] = treatment time 6 after reperfusion
# [9] = treatment time 12 after reperfusion
# [10] = treatment time 18 after reperfusion
# [11] = treatment time 24 after reperfusion
# [12] = treatment time −0.5 after reperfusion
SMILES,mortality rate [1],Induction percentage of convulsion [1],Initiation time of convulsion [1],Duration of convulsion [1],inhibition at 67 µg/mL (thoracic aorta of rats),Inhibitory effect of cell death by NMDA-induced excitable neurotoxicity ([2]; 1 μg/ml compound),Inhibitory effect of cell death by NMDA-induced excitable neurotoxicity ([2]; 2 μg/ml compound),also measured
"CS(=O)(=O)N(CCCCN(CCCn1c(=O)[nH]c2ccccc2c1=O)S(C)(=O)=O)CCCn1c(=O)[nH]c2ccccc2c1=O [Compound 18, N-[3-(2,4-dioxo-1,4-dihydro-2H-quinazolin-3-yl)propyl]-N-(4-{[3-(2,4-dioxo-1,4-dihydro-2H-quinazolin-3-yl)propyl]methansulfonylamino}butyl)methansulfonamide]",0(0/6) %,83(5/6) %,19.1 ± 8.4 min,5.2 ± 3.4 min,42.4%,44.4%,21.0%,–
"CC(=O)N(CCCCNCCCn1c(=O)[nH]c2ccccc2c1=O)CCCNC(=O)c1ccc(O)cc1 [Compound 19, N-[3-(acetyl-{4-[3-(2,4-dioxo-1,4-dihydro-2H-quinazolin-3-yl)propylamino]butyl}amino)propyl]-4-hydroxybenzamide]",0(0/6) %,50(3/6) %,38.7 ± 1.5 min,1.8 ± 2.7 min,11.8%,40.1%,45.2%,–
"CC(=O)N(CCCCNCCCNC(=O)c1ccc(O)cc1)CCCn1c(=O)[nH]c2ccccc2c1=O [Compound 20, N-[3-(4-{acetyl-[3-(2,4-dioxo-1,4-dihydro-2H-quinazolin-3-yl)propyl]amino}butylamino)propyl]-4-hydroxybenzamide]",0(0/6) %,50(3/6) %,44.7 ± 11.0 min,0.9 ± 1.9 min,15.2%,36.4%,42.5%,–
C[C@]12N[C@H](Cc3ccccc31)c1ccccc12 [MK-801],–,–,–,–,–,49.0%,63.6%,"Inhibitory percentage compared to negative control [3, 4]: 50.2%; Infarcted volume (Mean ± standard deviation) [3, 4]: 0.21 ± 0.04 cm^3; Inhibitory percentage compared to negative control [3, 5]: 27.0%; Infarcted volume (Mean ± standard deviation) [3, 5]: 0.31 ± 0.02 cm^3; Inhibitory percentage compared to negative control [3, 6]: 22.8%; Infarcted volume (Mean ± standard deviation) [3, 6]: 0.33 ± 0.02 cm^3; Inhibitory percentage compared to negative control [3, 7]: 34.4%; Infarcted volume (Mean ± standard deviation) [3, 7]: 0.28 ± 0.08 cm^3; Inhibitory percentage compared to negative control [3, 8]: 13.3%; Infarcted volume (Mean ± standard deviation) [3, 8]: 0.37 ± 0.06 cm^3; Inhibitory percentage compared to negative control [3, 9]: 8.7%; Infarcted volume (Mean ± standard deviation) [3, 9]: 0.39 ± 0.06 cm^3; Inhibitory percentage compared to negative control [3, 10]: 7.4%; Infarcted volume (Mean ± standard deviation) [3, 10]: 0.40 ± 0.08 cm^3; Inhibitory percentage compared to negative control [3, 11]: 8.8%; Infarcted volume (Mean ± standard deviation) [3, 11]: 0.39 ± 0.05 cm^3; Inhibitory percentage compared to negative control [3, 12]: 55.4%; Infarcted volume (Mean ± standard deviation) [3, 12]: 0.19 ± 0.06 cm^3; Treatment time after reperfusion giving the maximum effect ([3]; positive control, iv): 30 min"
"O=C(c1ccccc1)N(CCCCNCCCn1c(=O)[nH]c2ccccc2c1=O)CCCn1c(=O)[nH]c2ccccc2c1=O [Compound 10, N-[3-(2,4-dioxo-1,4-dihydro-2H-quinazolin-3-yl)propyl]-N-{4-[3-(2,4-dioxo-1,4-dihydro-2H-quinazolin-3-yl)propylamino]butyl}benzamide]",17(1/6) %,100(6/6) %,5.8 ± 1.4 min,49.9 ± 5.4 min,4.9%,15.4%,13.7%,–
"O=c1[nH]c2ccccc2c(=O)n1CCCNCCCCN(CCCn1c(=O)[nH]c2ccccc2c1=O)Cc1ccccc1 [Compound 9, 3-{3-[4-({N-[3-(2,4-dioxo-1,4-dihydro-2H-quinazolin-3-yl)propyl]-N-benzyl}amino)butylamino]propyl}-1H-quinazoline-2,4-dione]",67(4/6) %,100(6/6) %,4.4 ± 0.7 min,39.8 ± 10.3 min,–,21.4%,33.3%,Relaxation percentage (thoracic aorta of rats): 95.5%
"CN1C(=O)CN=C(c2ccccc2)c2cc(Cl)ccc21 [Diazepam, reference compound]",0(0/6) %,0(0/6) %,–,–,–,–,–,–
